This data set can be described thus: Safety and tolerability of ascending single IV doses in human subjects. It is filed as in vivo. The text has this: In each group, subjects received CR665 or placebo.
The condition of each subject was monitored throughout the study.
Subjects were also encouraged to spontaneously report adverse events occurring at any other time during the study. Any adverse events and remedial action required were to be recorded for each subject. The nature, time of onset, duration and severity were documented, together with the Project Physician's opinion of the relationship to drug administration.
The condition of the dosing cannula site for each subject was monitored for erythema, pruritus and swelling at the following times: Pre dose, 0.5, 1, 2 and 24 hours after the start of the infusion. Subjects were also encouraged to spontaneously report adverse events relating to the infusion site at any other time during the study. Any adverse events and observations relating to the infusion site and remedial action required were to be recorded for each subject. The nature, time of onset, duration, and severity were to be documented, together with the Project Physician's opinion of the relationship to drug administration.
Supine and standing blood pressure, supine pulse rate and oral body temperature were measured in duplicate at the following times: Day 1; Pre dose, 15 minutes (Part B only), 30 minutes, 55 minutes, 1.5, 2, 2.5, 3, 4, 8, 12, 24 and 48 hours after the start of the infusion (up to 24 hours only for Groups A1 to A4); and at Follow up visit. Supine vital signs only were measured during the infusion period. Pre dose blood pressure and pulse rate were measured in triplicate at approximately 2 minute intervals. The median value was used as the baseline value in the data analysis. All subsequent measurements were performed singly, but repeated in duplicate if outside the relevant clinical reference ranges. If repeated, the median of the three values were used in the data analysis. Blood pressure and pulse rate were measured using automated Critikon Dinamap™ PRO 400 monitors. Subjects were required to be supine for at least 5 minutes before blood pressure and pulse rate measurements. Standing blood pressure and pulse rate were then measured singly after the subject had been sitting for approximately 1 minute and then standing for approximately 2 minutes. Oral body temperature was measured singly using an Omron digital thermometer. To assess drug effects on cardiovascular function, a 12 lead resting ECG with a 10 second rhythm strip was recorded on a Marquette MAC5000 ECG machine at the following times, after the subject has been supine for at least 5 minutes: Day 1; Pre dose, 50 minutes, 2, 4, 8, 24 and 48 hours after the start of the infusion (up to 24 hours only for Groups A1 to A4); and at the follow up visit. The ECG machine computed the PR, QT and QTc intervals, QRS duration, and heart rate. The QT interval was corrected for heart rate (QTc) using Bazett's formula. For continuous ECG measurements, continuous cardiac Holter monitoring of each subject, using Reynolds Tracker II Holter monitors, was performed from 1 hour prior to until 4 hours after the start of the infusion. Blood and urine samples were collected, after at least a 6 hour fast, for clinical laboratory evaluations at the following times during the study: Pre dose and 24 hours after the start of the infusion; and at the follow up visit.
After collection of urine samples, following removal of the aliquots for drug assay and/or urinalysis, urine was pooled over the following time intervals: 24 to 0 hours and 0 to 24 hours after the start of the infusion. A 10 mL aliquot was removed from the each pooled collection for determination of urinary creatinine.
An assessment of fluid balance (made by comparison of volume of fluid consumed and volume of fluid excreted) was made over the following periods: 24 to 0 hours and 0 to 24 hours after the start of the infusion. During these periods, the volume of fluid consumed and the volume of urine excreted was recorded. […]

Counter-ions that a name gives are not always drawn. Non-standard residues stand in square brackets, D forms with d. Residues, ends and D or L forms follow the SMILES beside them. *: point of attachment. NH(4-picolyl) = c1cc(CN*)ccn1; dNle = CCCC[C@@H](N)C(=O)O

Take `CCCC[C@@H](NC(=O)[C@@H](Cc1ccccc1)NC(=O)[C@H](N)Cc1ccccc1)C(=O)N[C@H](CCCNC(=N)N)C(=O)NCc1ccncc1` [CR665, D-phenylalanyl-D-phenylalanyl-D-norleucyl-N-(4-pyridinylmethyl)-D-argininamide, acetate salt] (H-[dF][dF][dNle][dR]-{NH(4-picolyl)}): the “Fluid balance (urine excreted-fluid consumed)” value (0 to 24 hour after start of infusion) is recorded as “no apparent treatment or dose related trends”. Moreover, under “Parts A and B”, the “12-lead ECG evaluations” value was “no treatment related trends, significant clinical changes, or abnormalities in the morphology of the 12 lead ECG”; the “Creatinine clearance estimated from serum creatinine” value is listed as “no clinically important changes”; the “Supine and standing blood pressure, pulse rate, oral body temperature” value is “no treatment or dose related trends”. In addition, the “Severe or serious adverse events” value (all 54 subjects, all dose levels) was “no severe or serious adverse events”. Also, the “QTc interval (Bazett's and Friedericia's corrected)” value (each dose level, male and female subjects) was “no evidence of prolongation of QTc interval”. Besides, the “CNS symptoms (hallucinations or dysphoria)” value (even at the highest dose levels) is listed as “no signs of the more typical CNS symptoms”. Further, the “Volume of urine excreted compared to placebo” value (first 4 hours after start of infusion, each dose level, male and female, Parts A and B) is “increase”. Where the note is “human, in vivo”, the “Clinical laboratory evaluations (serum biochemistry, hematology, urinalysis)” value was “no treatment related trends or significant clinical findings” and the Physical examination result is “no treatment related findings”.

Values taken from patent US8217000B2, “Method for elevating prolactin in mammals” (Cara Therapeutics, Inc., priority 2006, dated 2012).
